Experimental data reported in US6121319A (priority 1998, dated 2000).

Assays:
[1] = system: VCAM-1; assay: VCAM-1 expression (general statement)
[2] = system: macrophage accumulation (Ram-11 antigen); assay: Macrophage accumulation in aorta sections of hypercholesterolemic rabbits (Ram-11 immunostaining); assay type: in vivo, rabbit; details: six weeks; for reduction in macrophage accumulation in aorta sections: immunostaining (Ram-11), approx. 150 mg/kg/day (probucol: similar experiment, same dose)
Excerpt: (§1) After six weeks, lipoprotein fractions were separated from whole plasma by […], and analyzed for cholesterol and triglyceride content.
(§2) The rabbits described in Example 8 were sacrificed and aortas obtained. The aortas were stained with sudan-4 and the extent of staining analyzed. FIG. 9 is a graph of the percent aortic surface area covered by lesions in MSE treated and untreated lipid-fed rabbits.
(§3) Sections of the aortas were immunostained for VCAM-1 expression or macrophage accumulation using antibodies for VCAM-1 or Ram-11 antigen.

[3] = system: VCAM-1; assay: VCAM-1 expression in human aortic endothelial cells (TNF-induced, ELISA); assay type: cell-based; details: for VCAM-1 expression as a percentage of VCAM-1 expression induced by TNF alone: HAEC, 2.5, 5, 10 and 100 μM, 16 h, 37 °C, FIG. 1
Procedure: (§4) The cells were incubated for sixteen hours in cell culture media at 37 degrees Celsius in a tissue culture incubator. After sixteen hours, the cells were washed, and incubated with antibodies to VCAM-1. The amount of antibody binding to the cells was determined by a colorometric ELISA assay using a horseradish peroxidase conjugated antibody to the VCAM-1 antibody.

[4] = system: VCAM-1; assay: VCAM-1 expression in aorta sections of hypercholesterolemic rabbits (immunostaining); assay type: in vivo, rabbit; details: six weeks; for reduction in VCAM-1 expression in aorta sections: immunostaining, approx. 150 mg/kg/day (probucol: similar experiment, same dose)
Excerpt: as §1, §2, §3

[5] = cited from earlier work
[6] = system: apoE-knock out mice; assay: Lipoproteins in apoE-knock out mice, two weeks oral; assay type: in vivo, mouse; details: for effect on total cholesterol and LDL / effect on HDL: mice
[7] = system: LDL receptor-deficient rabbits; details: Carew et al.; cited from earlier work
[8] = system: lipid-fed rabbits; assay: Cholesterol and lipoprotein cholesterol in plasma of lipid-fed rabbits, three weeks; assay type: in vivo, rabbit; details: 0.5% wt/wt in high-fat chow, p<0.05, FIG. 5
Excerpt: Control animals were fed the same chow without drug added. Lipoprotein fractions were separated from whole plasma by […] and analyzed for cholesterol content.

[9] = system: ICAM-1; assay: ICAM-1 expression in human aortic endothelial cells (TNF-induced, ELISA); assay type: cell-based; details: HAEC; 2.5, 5, 10 and 100 μM; 16 h; FIG. 2
Procedure: as §4, with “ICAM-1.” for “VCAM-1.”, “ICAM-1” for “VCAM-1”

[10] = system: rabbits; assay: Effect on lipoproteins in rabbits (summary statement); assay type: in vivo, rabbit; details: for effect on HDL: rabbits (species not restated for probucol)
Excerpt: Statins reduce LDL and may or may not effect HDL.

[11] = system: NF-kB; assay: NF-kB activation in TNF-treated human aortic endothelial cells (gel shift); assay type: cell-based; details: HAEC, 25 micromolar, 1, 2 or 4 h
Procedure: Human aortic endothelial cells were treated with TNF alone or in combination with 25 micromolar MSE or PDTC for a period of either one hour, two hours or four hours. The cells were washed and the nuclear extracts were prepared to perform gel shift analysis using a VCAM-1 promoter probe.

[12] = system: bacteria; assay: Bacterial Ames test
Excerpt: MSE is not a mutagen in the bacterial Ames test.

[13] = system: hypercholesterolemic monkeys; assay: Serum LDL and cholesterol in hypercholesterolemic cynomolgus monkeys; assay type: in vivo; details: for effect on HDL: monkeys
Procedure: Cynomolgus monkeys were made hypercholesterolemic prior to AGE-3 dosing by feeding a high fat cholesterol diet. The monkeys were then dosed orally with AGE-3 (100 mg/kg/day) for two weeks. The percent serum LDL cholesterol decreased in a range from 4 to 60 percent in the monkeys over this time period. Administration of the drug was then terminated, and serum cholesterol checked on day 29.

[14] = system: New Zealand white rabbits; assay: Cholesterol and lipoproteins in cholesterol-fed New Zealand White rabbits, six weeks; assay type: in vivo, rabbit
Procedure: (§5) Oral administration of MSE (150 mg/kg/day) for six weeks lowers total plasma, ApO-B containing and HDL cholesterol levels in a New Zealand White rabbit model.
as §1

[15] = system: C57 black mice; assay: Lipoproteins in cholesterol-fed C57 black mice, two weeks oral; assay type: in vivo, mouse
[16] = system: VCAM-1; assay: VCAM-1 gene expression in lungs of LPS-challenged mice (Northern blot); assay type: in vivo, mouse; details: subcutaneous time release pellets, 150 mg/kg/day
Procedure: (§6) MSE administered via subcutaneous implanted pellets (150 mg/kg/day time release pellets) blocks LPS-induced gene expression of VCAM-1 and MCP-1 in lungs in a mice model.
(§7) FIG. 4 is a Northern blot analysis of VCAM-1 and MCP-1 gene expression from RNA isolated from the lungs of LPS-challenged ApoE knockout mice. […] After one week they were challenged intraperitoneally with 1 mg/kg of LPS. After two hours the animals were sacrificed and lungs frozen for RNA isolation. The RNA was size fractionated by denaturing 1.0% agarose gel electrophoresis, transferred to a nylon membrane and hybridized with a mouse JE-specific ^32 P-labelled cDNA probe. The membrane was subsequently stripped and hybridized with a mouse VCAM-1 specific cDNA and then a chicken β-actin specific cDNA probe.

[17] = system: MCP-1; assay: MCP-1 expression in human aortic endothelial cells (TNF, ELISA); assay type: cell-based
Excerpt: The cell culture media was harvested and used to quantitate the amount of MCP-1 using a color-based ELISA assay. […] MCP-1 is a chemoattractant protein that recruits monocytes to an atherosclerotic lesion.

[18] = Drug level in plasma of rabbits fed a high cholesterol diet for three weeks (HPLC); assay type: in vivo, rabbit; details: 0.5% wt/wt in high-fat chow, FIG. 6
Excerpt: The drugs were extracted from plasma with ether and analyzed by high pressure liquid chromatography.

[19] = system: aortic lesions; assay: Aortic lesions in hypercholesterolemic rabbits (sudan-4 staining); assay type: in vivo, rabbit; details: six weeks
Procedure: as §5, §1, §2

[20] = Plasma level of MSE over days of treatment (FIG. 10); assay type: in vivo; details: FIG. 10, in micromolar
[21] = system: MCP-1; assay: MCP-1 gene expression in lungs of LPS-challenged mice (Northern blot); assay type: in vivo, mouse; details: subcutaneous time release pellets, 150 mg/kg/day
Procedure: as §6, §7

[22] = system: rats; assay: Two-week oral administration to rats (toxicity, clinical chemistry); assay type: in vivo, rat; details: 1000 mg/kg/day
[23] = system: VCAM-1; details: U.S. Pat. No. 5,380,747; cited from earlier work
[24] = system: VCAM-1; details: PCT/US95/05880; cited from earlier work
[25] = system: NF-kB; details: diverse signals; cited from earlier work
[26] = listed as monosuccinic acid ester of probucol
[27] = 0.5 wt/wt (approx. 150 mg/kg/day) in diet, FIG. 8
[28] = oral, 150 mg/kg/day, New Zealand White rabbit

CC(C)(Sc1cc(C(C)(C)C)c(O)c(C(C)(C)C)c1)Sc1cc(C(C)(C)C)c(O)c(C(C)(C)C)c1 [probucol, 4,4'-(isopropylidenedithio) bis(2,6-di-tert-butylphenol), reference compound]
effect on VCAM-1 expression [1]: does not significantly affect VCAM-1 expression | reduction in macrophage accumulation in aorta sections [2]: less than 25% | VCAM-1 expression as a percentage of VCAM-1 expression induced by TNF alone [3]: does not have an appreciable effect on VCAM | reduction in VCAM-1 expression in aorta sections [4]: less than 25% | solubility in water [5]: almost insoluble in water | effect on total cholesterol and LDL [6]: a minimal if any, effect | progression of atherosclerosis [7]: slow the progression of atherosclerosis | reduction in lipoprotein fractions (cholesterol) [8]: only HDL cholesterol | ICAM-1 expression as a percentage of ICAM-1 expression induced by TNF alone [9]: no effect on ICAM expression | effect on HDL [10]: reduces HDL significantly | effect on LDL ([10]; species not restated for probucol): reduces LDL only to a small extent

CC(C)(Sc1cc(C(C)(C)C)c(O)c(C(C)(C)C)c1)Sc1cc(C(C)(C)C)c(OC(=O)CCC(=O)O)c(C(C)(C)C)c1 [MSE, monosuccinic acid ester of probucol]
effect on VCAM-1 expression [1]: block the induced expression of the endothelial cell surface adhesion molecule VCAM-1 | VCAM-1 expression, all species tested ([1]; all species tested): inhibits the expression of VCAM-1 in all species tested | reduction in macrophage accumulation in aorta sections [2]: more than 75% | macrophage accumulation ([2]; oral, 150 mg/kg/day): marked inhibition | VCAM-1 expression as a percentage of VCAM-1 expression induced by TNF alone [3]: inhibits the expression of VCAM-1 | TNF-induced VCAM-1 gene expression ([3]; human aortic endothelial cells): selectively inhibits | effect on NF-kB activation [11]: does not affect NF-kB activation | reduction in VCAM-1 expression in aorta sections [4]: more than 75% | VCAM-1 expression in aorta ([4]; oral, 150 mg/kg/day): marked inhibition | effect on HDL [6]: without affecting HDL | effect on total cholesterol and LDL [6]: a minimal if any, effect | effect on HDL [6, 26]: does not affect HDL | apoB-containing lipoproteins ([6]; oral, two weeks, apoE-knock out mice): selectively lowers | mutagenicity [12]: not a mutagen | serum cholesterol after termination of dosing ([13]; day 29, after 100 mg/kg/day oral for two weeks): returned to the pretreatment level | lowering of LDL, reversibility ([13]; during and after administration, FIG. 12): reversible lowering of LDL | effect on HDL [13]: without effecting HDL | effect on total cholesterol and LDL, monkeys vs mice ([13]; monkeys compared with mice): significantly more effective at reducing both cholesterol and LDL in rabbits and monkeys than in mice | effect on HDL [13, 26]: does not affect HDL | LDL cholesterol ([13]; oral, two weeks): lowers | total plasma cholesterol ([13]; oral, two weeks): lowers | cholesterol in IDL [14, 27]: lowered more by treatment with AGE-3 than with probucol | cholesterol in VLDL [14, 27]: lowered more by treatment with AGE-3 than with probucol | total cholesterol [14, 27]: lowered more by treatment with AGE-3 than with probucol | ApO-B containing cholesterol levels [14, 28]: lowers | HDL cholesterol levels [14, 28]: lowers | total plasma cholesterol [14, 28]: lowers | apoB-containing lipoproteins [15]: selectively lowers | effect on HDL [15]: without affecting HDL | LPS-induced gene expression of VCAM-1 in lungs [16]: blocks | MCP-1 expression ([17]; HAEC, MSE 10 μM, probucol 50 μM, TNF, 4 h, FIG. 3): inhibited the expression of MCP-1 to a greater extent than probucol itself | TNF-induced MCP-1 gene expression ([17]; human aortic endothelial cells): selectively inhibits | reduction in lipoprotein fractions (cholesterol) [8]: statistically significant reduction in all lipoprotein fractions | ICAM-1 expression as a percentage of ICAM-1 expression induced by TNF alone [9]: only a slight effect on ICAM expression which was not very concentration dependent | drug level in plasma, MSE vs probucol [18]: similar | effect on HDL [10]: reduces HDL only to a small extent | effect on total cholesterol and LDL, rabbits vs mice ([10]; rabbits compared with mice): significantly more effective at reducing both cholesterol and LDL in rabbits and monkeys than in mice | atherosclerosis lesion formation ([19]; oral, 150 mg/kg/day): marked inhibition | aortic sudan-4 staining ([19]; approx. 150 mg/kg/day, FIG. 9): much less staining | plasma level of MSE as a function of days [20]: remained fairly constant | LPS-induced gene expression of MCP-1 in lungs [21]: blocks | mortality ([22]; oral, two weeks): did not result in any mortality | changes in liver morphology or histopathology ([22]; rat, in vivo, po): not accompanied with changes in liver morphology or histopathology | hematocrit values ([22]; rat, in vivo, po): no effect | serum LDH elevation ([22]; rat, in vivo, po): not statistically different from the untreated group | serum SGOT elevation ([22]; rat, in vivo, po): not statistically different from the untreated group | serum SGPT elevation ([22]; rat, in vivo, po): not statistically different from the untreated group | serum alkaline phosphatase elevation ([22]; rat, in vivo, po): not statistically different from the untreated group | serum electrolyte values ([22]; rat, in vivo, po): no effect

S=C(S)N1CCCC1 [PDTC, pyrrolidine dithiocarbamate]
expression of VCAM-1 in vascular endothelial cells [23]: can be inhibited | effect on NF-kB activation [11]: does inhibit the activation of NF-kB | induction of VCAM-1 by polyunsaturated fatty acids and their hydroperoxides [24]: supressed | activation of NF-kB in vascular endothelial cells [25]: specifically inhibited
